Earlier results on five compounds are cited in patent publication US9901554B2, “Biodegradable compositions suitable for controlled release” (INGELL TECHNOLOGIES HOLDING B.V., priority 2011, dated 2018).

Read-outs that look alike come from different tables or passages of the source.

As to `CN(CC(O)CO)C(=O)c1c(I)c(NC(=O)C(CO)CO)c(I)c(C(=O)N(C)CC(O)CO)c1I` (centres unmarked) [iobitridol], for the setting “small molecules and peptide”, the solubility in water result is reported as “above 5000 ug/ml”.
For the compound `Cc1ccc(-c2cc(C(F)(F)F)nn2-c2ccc(S(N)(=O)=O)cc2)cc1` [celecoxib], under “small molecules and peptide”, the solubility in water entry was “below 1 ug/ml”.
In the case of `CC1(C)O[C@@H]2C[C@H]3[C@@H]4CCC5=CC(=O)C=C[C@]5(C)[C@@]4(F)[C@@H](O)C[C@]3(C)[C@]2(C(=O)CO)O1` [triamcinolone acetonide], the solubility in water result (small molecules and peptide) was “below 20 ug/ml”.
Turning to “bovine serum albumin: water soluble model protein (Sigma)”, where the note is “model proteins”, the solubility in water entry is listed as “above 10000 μg/ml”.
Take “lysozyme: water soluble model protein of around 16 kDa (Sigma)”: the solubility in water entry (model proteins) was “above 10000 μg/ml”.
